Test results taken from PubChem BioAssay AID1259408 (Genetic Toxicology Data Bank (GENE-TOX), 2018).
Calls of active or inactive are those of the source. No rule for the calls is given here.

Tested on: GENE-TOX genotoxicity assays, various organisms and cells
Assay: GENE-TOX mutagenicity studies
Settings: for call: Assay Type: In vivo carcinogenicity studies
[1] = Species/Cell Type: Nonhuman, Assay Code: CCG+L, Evaluation Type: Evaluation A (Pre-1980)
[2] = Species/Cell Type: Drosophila melanogaster, Assay Type: Sex-linked recessive lethal gene mutation, Assay Code: SRL+, Evaluation Type: Evaluation A (Pre-1980)
[3] = Species/Cell Type: Salmonella typhimurium (one or more of the five standard strains: TA98, TA100, TA1535, TA1537, and TA1538), Assay Type: Histidine reverse gene mutation, Ames assay, Assay Code: SAL+*, Activation: With metabolic activation, Evaluation Type: Evaluation A (Pre-1980)
[4] = Species/Cell Type: Mammalian polychromatic erythrocytes, Assay Type: Micronucleus test, chromosome aberrations, Assay Code: MNT+, Evaluation Type: Evaluation A (Pre-1980)
[5] = Species/Cell Type: Nonhuman, Assay Type: Sister-chromatid exchange (SCE) in vitro, Assay Code: SC2T, Evaluation Type: Evaluation B (Post-1980)
[6] = Species/Cell Type: Human lymphocytes, Assay Type: Sister-chromatid exchange (SCE) in vitro, Assay Code: SCLT, Evaluation Type: Evaluation B (Post-1980)
[7] = Species/Cell Type: Human, Assay Type: Sister-chromatid exchange (SCE) in vitro, Assay Code: SC1T, Evaluation Type: Evaluation B (Post-1980)
[8] = Species/Cell Type: Allium cepa, Assay Type: Chromosome aberrations, Assay Code: ALC+, Evaluation Type: Evaluation A (Pre-1980)
[9] = Species/Cell Type: Salmonella typhimurium (one or more of the five standard strains: TA98, TA100, TA1535, TA1537, and TA1538), Assay Type: Histidine reverse gene mutation, Ames assay, Assay Code: SALT, Evaluation Type: Evaluation A (Pre-1980)
[10] = Species/Cell Type: Saccharomyces cerevisiae, Assay Type: Mitotic recombination or gene conversion, Assay Code: YEC-, Evaluation Type: Evaluation A (Pre-1980)
[11] = Species/Cell Type: Syrian hamster embryo (SHE) cells, Assay Type: Cell transformation, clonal assay, Assay Code: CTC-, Evaluation Type: Evaluation A (Pre-1980)
[12] = Species/Cell Type: Salmonella typhimurium (one or more of the five standard strains: TA98, TA100, TA1535, TA1537, and TA1538), Assay Type: Histidine reverse gene mutation, Ames assay, Assay Code: SAL+, Evaluation Type: Evaluation A (Pre-1980)

With `CC(=O)Nc1ccc2c(ccc3ccccc32)c1` the mutagenic call (Species/Cell Type: Human diploid fibroblasts, Assay Type: Unscheduled DNA synthesis (UDS) in vitro, DNA effects, Assay Code: UDH-, Evaluation Type: Evaluation A (Pre-1980)) was “inactive; negative” and the call [1] was “active; positive”.

For `NC[C@H]1O[C@H](O[C@H]2[C@H](O[C@@H]3O[C@H](CO)[C@@H](O)[C@H]3O)[C@@H](O)[C@H](N)C[C@@H]2N)[C@H](N)[C@@H](O)[C@@H]1O`, the mutagenic call (Species/Cell Type: Saccharomyces cerevisiae, Assay Type: Mitotic recombination or gene conversion, Assay Code: YEH-, Evaluation Type: Evaluation A (Pre-1980)) was “inactive; negative”.

For `O=NN1CCC(Cl)CC1`, the mutagenic call [2] was “active; positive” and the mutagenic call [3] was “active; positive”.

In the case of `S=c1nc[nH]c2nc[nH]c12`, the mutagenic call (Species/Cell Type: Escherichia coli polA (W3119 vs P3478), Assay Type: Rec-assay, DNA effects (bacterial DNA repair), Assay Code: RE1+, Evaluation Type: Evaluation A (Pre-1980)) is reported as “active; positive”, the mutagenic call (Species/Cell Type: Mammalian germ cells, Sex: Male, Assay Type: Chromosome aberrations in vivo, Assay Code: CY9+, Evaluation Type: Evaluation A (Pre-1980)) is reported as “active; positive” and the mutagenic call [4] is reported as “active; positive”. For the same molecule, the mutagenic call (Species/Cell Type: Mouse (C3H/10T1/2) cells, Assay Type: Cell transformation, Assay Code: CTH-, Evaluation Type: Evaluation A (Pre-1980)) was “inactive; negative”, the mutagenic call (Species/Cell Type: Mouse, Sex: Male, Assay Type: Heritable translocation test, chromosome aberrations, Assay Code: HTT-, Evaluation Type: Evaluation A (Pre-1980)) was “inactive; negative” and the mutagenic call (Species/Cell Type: Nonhuman bone marrow, Assay Type: Chromosome aberrations, in vivo, Assay Code: CY#+D, Dose Response: With dose response, Evaluation Type: Evaluation A (Pre-1980)) was “active; positive”. For the same molecule, the call (Species/Cell Type: Nonhuman, Assay Code: CCGT, Evaluation Type: Evaluation A (Pre-1980)) was “no conclusion”, the mutagenic call [5] was “no conclusion” and the mutagenic call (Species/Cell Type: Rodents, Sex: Male, Assay Type: Dominant lethal test, Assay Code: DLT+, Evaluation Type: Evaluation A (Pre-1980)) was “active; positive”.

With `CN[C@H]1CCc2cc(OC)c(OC)c(OC)c2-c2ccc(OC)c(=O)cc21` the mutagenic call (Species/Cell Type: Drosophila melanogaster, Assay Type: Aneuploidy, sex chromosome gain, chromosome aberrations, Assay Code: DAG+F, Evaluation Type: Evaluation A (Pre-1980)) was “active; positive”, the mutagenic call (Species/Cell Type: Drosophila melanogaster, Assay Type: Aneuploidy, whole sex chromosome loss, chromosome aberrations, Assay Code: DAC+F, Evaluation Type: Evaluation A (Pre-1980)) was “active; positive” and the mutagenic call [6] was “no conclusion”. For the same molecule, the mutagenic call [7] was “no conclusion”, the mutagenic call [4] was “active; positive” and the mutagenic call [5] was “no conclusion”.

With `CS(=O)(=O)OC[C@@H](O)[C@H](O)COS(C)(=O)=O` the mutagenic call [8] was “active; positive” and the mutagenic call (Species/Cell Type: Arabidopsis species, Assay Type: Gene mutation, Assay Code: ARM+, Evaluation Type: Evaluation A (Pre-1980)) was “active; positive”.

With `CCOC(=O)CSc1ccc2c3c(cccc13)C(=O)c1ccccc1-2` the mutagenic call [3] was “active; positive”.

In the case of `Cc1ccc(N=O)cc1`, the mutagenic call (Species/Cell Type: Saccharomyces cerevisiae, Assay Type: Mitotic recombination or gene conversion, Assay Code: YEC+, Evaluation Type: Evaluation A (Pre-1980)) is reported as “active; positive”.

For `O[C@@H]1c2ccc3cc4ccccc4cc3c2[C@@H]2OC2[C@@H]1O` (stereo partly drawn), the mutagenic call (Species/Cell Type: Chinese hamster lung (V79) cells, Assay Type: Forward gene mutation at the HPRT or ouabain locus, Assay Code: V79+, Evaluation Type: Evaluation A (Pre-1980)) was “active; positive”.

In the case of `CCCSP(=S)(OCC)Oc1ccc(SC)cc1` (stereo not drawn), the mutagenic call [5] is reported as “no conclusion”.

`NC(=O)N/N=C/c1ccco1` was tested, and the mutagenic call (Species/Cell Type: Escherichia coli WP2 UVRA, Assay Type: Tryptophan reverse gene mutation, Assay Code: WPU-, Evaluation Type: Evaluation A (Pre-1980)) was “inactive; negative”.

`CS(=O)(=O)c1ccc([C@H](O)[C@H](CO)NC(=O)C(Cl)Cl)cc1` was tested, and the mutagenic call [9] was “no conclusion”.

With `CN(C)C(=O)Nc1cccc(C(F)(F)F)c1` the mutagenic call [10] was “inactive; negative”.

For `NC(=O)N1c2ccccc2C=Cc2cc(O)ccc21`, the mutagenic call [6] was “no conclusion” and the mutagenic call [7] was “no conclusion”.

With `CC1CC(C)CN(N=O)C1` (stereo not drawn) the mutagenic call [2] was “active; positive”, the mutagenic call (Species/Cell Type: Saccharomyces cerevisiae, Assay Type: Forward gene mutation, Assay Code: YEF+*, Activation: With metabolic activation, Evaluation Type: Evaluation A (Pre-1980)) was “active; positive” and the mutagenic call (Species/Cell Type: Saccharomyces cerevisiae, Assay Type: Reverse gene mutation, Assay Code: YER+*, Activation: With metabolic activation, Evaluation Type: Evaluation A (Pre-1980)) was “active; positive”. For the same molecule, the mutagenic call [9] was “no conclusion”.

With `CCCCOC(=O)COc1cc(Cl)c(Cl)cc1Cl` the mutagenic call (Species/Cell Type: Salmonella typhimurium, Serratia marcesens, Assay Type: Forward and reverse gene mutation, host-mediated assay, Assay Code: HM2T, Evaluation Type: Evaluation A (Pre-1980)) was “no conclusion”.

With `OC[C@@H](O)[C@@H](O[C@H]1O[C@H](CO)[C@@H](O)[C@H](O)[C@H]1O)[C@H](O)[C@@H](O)CO` the mutagenic call (Species/Cell Type: Mammalian polychromatic erythrocytes, Assay Type: Micronucleus test, chromosome aberrations, Assay Code: MNT-, Evaluation Type: Evaluation B (Post-1980)) was “inactive; negative”.

In the case of `CN(C)C=O`, the mutagenic call (Species/Cell Type: Mammalian polychromatic erythrocytes, Assay Type: Micronucleus test, chromosome aberrations, Assay Code: MNTT, Evaluation Type: Evaluation A (Pre-1980)) is reported as “no conclusion”, the mutagenic call (Species/Cell Type: Mouse, Sex: Male, Assay Type: Sperm morphology, Assay Code: SPI-, Evaluation Type: Evaluation A (Pre-1980)) is reported as “inactive; negative” and the mutagenic call (Species/Cell Type: Nonhuman, Assay Type: Sister-chromatid exchange (SCE) in vitro, Assay Code: SC2+, Evaluation Type: Evaluation B (Post-1980)) is reported as “active; positive”. For the same molecule, the mutagenic call (Species/Cell Type: Rat primary hepatocytes, Assay Type: Unscheduled DNA synthesis (UDS) in vitro, DNA effects, Assay Code: UDP-, Evaluation Type: Evaluation A (Pre-1980)) was “inactive; negative” and the mutagenic call [11] was “inactive; negative”.

For `CCOP(=S)(OCC)SCSC(C)(C)C`, the mutagenic call (Species/Cell Type: Hordeum vulgare (barley), Assay Type: Chromosome aberrations, Assay Code: HOC+D, Dose Response: With dose response, Evaluation Type: Evaluation A (Pre-1980)) was “active; positive”.

For `O=[N+]([O-])c1ccc(-c2cscn2)o1`, the mutagenic call (Species/Cell Type: Bacillus subtilis (H17 vs M45), Assay Type: Rec-assay, spot test, DNA effects (bacterial DNA repair), Assay Code: REW+, Evaluation Type: Evaluation A (Pre-1980)) was “active; positive”, the call [1] was “active; positive” and the mutagenic call [12] was “active; positive”. For the same molecule, the mutagenic call [11] was “inactive; negative”.

With `CCN(CC)c1ccc(C(=C2C=CC(=[N+](CC)CC)C=C2)c2ccc(S(=O)(=O)O)cc2S(=O)(=O)[O-])cc1` the mutagenic call (Species/Cell Type: Mammalian polychromatic erythrocytes, Assay Type: Micronucleus test, chromosome aberrations, Assay Code: MNT+, Evaluation Type: Evaluation B (Post-1980)) was “active; positive”.

For `O=S(=O)(O)c1ccc2c(N=Nc3ccccc3)c(O)ccc2c1`, the mutagenic call [10] was “inactive; negative”.

With `Nc1ccc2c(c1)Cc1cc(N)ccc1-2` the mutagenic call [12] was “active; positive”.

For `Nc1cccc2cccnc12`, the mutagenic call (Species/Cell Type: Drosophila melanogaster, Assay Type: Sex-linked recessive lethal gene mutation, Assay Code: SRLT, Evaluation Type: Evaluation A (Pre-1980)) was “no conclusion”, the mutagenic call (Species/Cell Type: Saccharomyces cerevisiae, Assay Type: Forward gene mutation, Assay Code: YEF-*, Activation: With metabolic activation, Evaluation Type: Evaluation A (Pre-1980)) was “inactive; negative” and the mutagenic call (Species/Cell Type: Saccharomyces cerevisiae, Assay Type: Mitotic recombination or gene conversion, Assay Code: YEC-*, Activation: With metabolic activation, Evaluation Type: Evaluation A (Pre-1980)) was “inactive; negative”. The mutagenic call (Species/Cell Type: Saccharomyces cerevisiae, Assay Type: Mitotic recombination or gene conversion, Assay Code: YEH-*, Activation: With metabolic activation, Evaluation Type: Evaluation A (Pre-1980)) was “inactive; negative”, the mutagenic call (Species/Cell Type: Saccharomyces cerevisiae, Assay Type: Reverse gene mutation, Assay Code: YER+, Evaluation Type: Evaluation A (Pre-1980)) was “active; positive” and the mutagenic call [12] was “active; positive”.

In the case of `COC[CH2][Hg][Cl]`, the mutagenic call (Species/Cell Type: Drosophila melanogaster, Assay Type: Aneuploidy, sex chromosome gain, chromosome aberrations, Assay Code: DAG-F-M, Evaluation Type: Evaluation A (Pre-1980)) is reported as “inactive; negative” and the mutagenic call (Species/Cell Type: Drosophila melanogaster, Assay Type: Aneuploidy, whole sex chromosome loss, chromosome aberrations, Assay Code: DAC-M-F, Evaluation Type: Evaluation A (Pre-1980)) is reported as “inactive; negative”.

`Oc1ccc2c3c(cccc13)CC2` was tested, and the mutagenic call [9] was “no conclusion”.

`CCC(Br)(CC)C(=O)NC(N)=O` was tested, and the call (Species/Cell Type: Nonhuman, Assay Code: CCG-, Evaluation Type: Evaluation A (Pre-1980)) was “inactive; negative”.

For `Oc1ccc(O)c(O)c1`, the mutagenic call [8] was “active; positive”.

With `CN[C@H]1Cc2c[nH]c3c(Cl)ccc(c23)[C@]12C=C(C)C(=O)O2` the mutagenic call (Species/Cell Type: Bacillus subtilis (H17 vs M45), Assay Type: Rec-assay, spot test, DNA effects (bacterial DNA repair), Assay Code: REW-, Evaluation Type: Evaluation A (Pre-1980)) was “inactive; negative”.

With `CC(C)C[C@H](NC(=O)CNC(=O)[C@H](Cc1ccc(O)cc1)NC(=O)[C@H](CO)NC(=O)[C@H](Cc1c[nH]c2ccccc12)NC(=O)[C@H](Cc1cnc[nH]1)NC(=O)[C@@H]1CCC(=O)N1)C(=O)N[C@@H](CCCN=C(N)N)C(=O)N1CCC[C@H]1C(=O)NCC(N)=O` the mutagenic call (Species/Cell Type: Human, Sex: Male, Assay Type: Sperm morphology, Assay Code: SPHT, Evaluation Type: Evaluation A (Pre-1980)) was “no conclusion”.
